Measured values reported in patent publication US6369069B1 (Aventis Pharma Deutschland GmbH, priority 1998, dated 2002).

Test system: Na^+-dependent Cl^−/HCO3^− exchanger (NCBE)
Test: Inhibition of the Na+-dependent Cl−/HCO3− exchanger (NCBE) in human endothelial cells (pHi recovery, BCECF fluorescence, FLIPR)
Format: cell-based
Details: 10 μM
Procedure, shortened: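 ECV-304 cells loaded with 5 μM BCECF-AM in NH4Cl-containing saline, then placed in Na+/HCO3−-free buffer to acidify. pHi recovery started with Na+/HCO3− buffer (50 μM HOE 642) plus compound at various concentrations. Fluorescence kinetics over 2 min at 35 °C, normalised to 100% and 0% (HCO3−-free) controls.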

SMILES | Residual activity % of the NCBE at 10 μM [%]
N#CNS(=O)(=O)c1ccccc1-c1ccc(CN(C(=O)Cc2cccs2)C2CCc3ccccc32)cc1 (centres unmarked) [Example 314] | 14.4
CN(C)c1ccc(CN(Cc2ccc(-c3ccccc3S(=O)(=O)NC#N)cc2)C(=O)Cc2ccc(Cl)cc2)cc1 [Example 149] | 77.4
N#CNS(=O)(=O)c1ccccc1-c1ccc(CN(C(=O)Cc2cccs2)C2CCCc3ccccc32)cc1 (centres unmarked) [Example 315] | 23.5
N#CNS(=O)(=O)c1ccccc1-c1ccc(CN(CC2CCCO2)C(=O)Cc2cccs2)cc1 (centres unmarked) [Example 318] | 16.4
C=CCOC(=O)N(Cc1ccc(OC)cc1)Cc1ccc(-c2ccccc2S(=O)(=O)NC#N)cc1 [Example 45] | 80.1
COc1cccc(CC(=O)N(CCO)Cc2ccc(-c3ccccc3S(=O)(=O)NC#N)cc2)c1 [Example 20] | 37.1
CN(Cc1ccc(-c2ccccc2S(=O)(=O)NC#N)cc1)C(=O)Cc1c[nH]c2ccccc12 [Example 206] | 23.8
Cc1cccc(CN(Cc2ccc(-c3ccccc3S(=O)(=O)NC#N)cc2)C(=O)CC2CCCCC2)c1 [Example 351] | 27.2
N#CNS(=O)(=O)c1ccccc1-c1ccc(CN(Cc2ccc(C(F)(F)F)cc2)C(=O)c2ccccc2F)cc1 [Example 99] | 89.6
CC(C)(C)CC(=O)N(Cc1ccc(-c2ccccc2S(=O)(=O)NC#N)cc1)Cc1ccco1 [Example 158] | 57.9
COCCN(Cc1ccc(-c2ccccc2S(=O)(=O)NC#N)cc1)C(=O)Cc1c[nH]c2ccccc12 [Example 203] | 30.3
N#CNS(=O)(=O)c1ccccc1-c1ccc(CN(CCc2cccs2)C(=O)Cc2cccs2)cc1 [Example 141] | 71.1
N#CNS(=O)(=O)c1ccccc1-c1ccc(CN(C(=O)Cc2cccs2)C(C(=O)O)c2ccccc2)cc1 (centres unmarked) [Example 282] | 89.0
N#CNS(=O)(=O)c1ccccc1-c1ccc(CN(Cc2cccc3ccccc23)C(=O)CCS(=O)(=O)c2ccccc2)cc1 [Example 280] | 63.3
COc1cccc(CN(Cc2ccc(-c3ccccc3S(=O)(=O)NC#N)cc2)C(=O)c2cc3ccccc3s2)c1 [Example 76] | 87.3
N#CNS(=O)(=O)c1ccccc1-c1ccc(CN(Cc2ccccc2)C(=O)c2ccccc2Cl)cc1 [Example 55] | 29.3
C=CCOC(=O)N(Cc1ccc(Cl)cc1)Cc1ccc(-c2ccccc2S(=O)(=O)NC#N)cc1 [Example 46] | 52.2

SMILES | Residual activity % of the NCBE at 10 μM [%]
CC(C)CN(Cc1ccc(-c2ccccc2S(=O)(=O)NC#N)cc1)C(=O)Cc1ccccc1 [Example 122] | 90.6
COc1ccccc1C(=O)N(Cc1ccc(-c2ccccc2S(=O)(=O)NC#N)cc1)Cc1ccccc1F [Example 336] | 58.1
N#CNS(=O)(=O)c1ccccc1-c1ccc(CN(Cc2cccc(Cl)c2Cl)C(=O)CC2CCCCC2)cc1 [Example 349] | 50.4
CC(C)(C)CC(=O)N(Cc1ccc(F)cc1)Cc1ccc(-c2ccccc2S(=O)(=O)NC#N)cc1 [Example 163] | 93.4
CN(Cc1ccc(-c2ccccc2S(=O)(=O)NC#N)cc1)C(=O)Cc1cccs1 [Example 239] | 56.3
C[C@H](c1ccccc1)N(Cc1ccc(-c2ccccc2S(=O)(=O)NC#N)cc1)C(=O)c1ccccc1Cl [Example 108] | 87.7
CC(C)(C)OC(=O)C(c1ccccc1)N(Cc1ccc(-c2ccccc2S(=O)(=O)NC#N)cc1)C(=O)Cc1ccccc1Br (centres unmarked) [Example 275] | 54.6
N#CNS(=O)(=O)c1ccccc1-c1ccc(CN(Cc2cccc(Cl)c2)C(=O)CCc2cccs2)cc1 [Example 290] | 45.8
N#CNS(=O)(=O)c1ccccc1-c1ccc(CN(CC2CCCCC2)C(=O)CCCCc2ccccc2)cc1 [Example 266] | 79.7
N#CNS(=O)(=O)c1ccccc1-c1ccc(CN(Cc2ccccn2)C(=O)Cc2csc3ccccc23)cc1 [Example 212] | 60.2
COc1ccc(CN(Cc2ccc(-c3ccccc3S(=O)(=O)NC#N)cc2)C(=O)Cc2cccs2)cc1 [Example 27] | 35.5
CN(Cc1ccc(-c2ccccc2S(=O)(=O)NC#N)cc1)C(=O)CCCCc1cccs1 [Example 222] | 76.7
COc1ccc(CN(Cc2ccc(-c3ccccc3S(=O)(=O)NC#N)cc2)C(=O)C2CCCCC2)cc1 [Example 15] | 67.6
N#CNS(=O)(=O)c1ccccc1-c1ccc(CN(Cc2ccccc2)C(=O)C(=O)c2ccco2)cc1 [Example 245] | 73.0
N#CNS(=O)(=O)c1ccccc1-c1ccc(CN(Cc2nc3ccccc3[nH]2)C(=O)CCCCc2cccs2)cc1 [Example 224] | 79.8
N#CNS(=O)(=O)c1ccccc1-c1ccc(CN(Cc2ccco2)C(=O)Cc2cccs2)cc1 [Example 139] | 48.5

Same assay, conditions: 10 μM compound; human endothelial cells (ECV-304); related to 100% and 0% pHi recovery controls

SMILES | Residual activity of the NCBE at 10 μM [%]
N#CNS(=O)(=O)c1ccccc1-c1ccc(CN(Cc2ccccc2)C(=O)c2ccccc2OC(F)(F)F)cc1 [Example 567, 4′-{[Benzyl-2-trifluoromethoxybenzoylamino]methyl}biphenyl-2-sulfonylcyanamide] | 69
N#CNS(=O)(=O)c1ccccc1-c1ccc(CN(Cc2ccccc2)C(=O)Cc2ccccc2SC(F)(F)F)cc1 [Example 564] | 23
Cc1ccccc1C(=O)N(Cc1ccccc1)Cc1ccc(-c2ccccc2S(=O)(=O)NC#N)cc1 [Example 565, 4′-{[Benzyl-2-methylbenzoylamino]methyl}biphenyl-2-sulfonylcyanamide] | 42
N#CNS(=O)(=O)c1ccccc1-c1ccc(CN(Cc2ccccc2)C(=O)c2ccccc2C(F)(F)F)cc1 [Example 566, 4′-{[Benzyl-2-trifluoromethylbenzoylamino]methyl}biphenyl-2-sulfonylcyanamide] | 72
N#CNS(=O)(=O)c1ccccc1-c1ccc(CN(Cc2ccccc2)C(=O)Cc2ccccc2OC(F)(F)F)cc1 [Example 563, 4′-{[Benzyl-2-(2-trifluoromethoxyphenyl)acetylamino]methyl}biphenyl-2-sulfonylcyanamide] | 46
Cc1ccc(C(=O)N(Cc2ccccc2)Cc2ccc(-c3ccccc3S(=O)(=O)NC#N)cc2)s1 [Example 568, 4′-{[Benzyl-(5-methylthiophen-2-yl)carbonylamino]methyl}biphenyl-2-sulfonylcyanamide] | 70
Cc1ccccc1CC(=O)N(Cc1ccccc1)Cc1ccc(-c2ccccc2S(=O)(=O)NC#N)cc1 [Example 561, 4′-{[Benzyl-2-(2-methylphenyl)acetylamino]methyl}biphenyl-2-sulfonylcyanamide] | 16
N#CNS(=O)(=O)c1ccccc1-c1ccc(CN(Cc2ccccc2)C(=O)Cc2ccccc2C(F)(F)F)cc1 [Example 562, 4′-{[Benzyl-2-(2-trifluoromethylphenyl)acetylamino]methyl}biphenyl-2-sulfonylcyanamide] | 33
COCCOc1cc(-c2ccccc2S(=O)(=O)NC#N)ccc1CN(Cc1ccccc1)C(=O)Cc1cccs1 [Example 560, 4′-{[Benzyl-2-(thiophen-2-yl)acetylamino]methyl}-3′-(2-methoxy)ethoxy-biphenyl-2-sulfonylcyanamide] | 8.0

Same assay, conditions: compound at 10 μM; R(3) to R(7) hydrogen series

SMILES | Residual activity % of the NCBE at 10 μM [%]
N#CNS(=O)(=O)c1ccccc1-c1ccc(CN(Cc2ccccc2)C(=O)Cc2ccco2)cc1 [Example 389] | 51.5
N#CNS(=O)(=O)c1ccccc1-c1ccc(CN(Cc2cccc3ccccc23)C(=O)Cc2ccco2)cc1 [Example 391] | 55.4

Same assay, conditions: compound at 10 μM; sub-table with R7 substituent

SMILES | Residual activity % of the NCBE at 10 μM [%]
Cc1ccc(-c2ccc(CN(Cc3ccccc3)C(=O)CC3CCCCC3)cc2)c(S(=O)(=O)NC#N)c1 [Example 545] | 70.1
Cc1ccc(-c2ccc(CN(Cc3ccccc3)C(=O)Cc3ccc(Cl)cc3)cc2)c(S(=O)(=O)NC#N)c1 [Example 529] | 89.4
Cc1ccc(-c2ccc(CN(Cc3cccs3)C(=O)Cc3ccsc3)cc2)c(S(=O)(=O)NC#N)c1 [Example 541] | 52.8
Cc1ccc(-c2ccc(CN(Cc3ccc4ccccc4c3)C(=O)Cc3ccsc3)cc2)c(S(=O)(=O)NC#N)c1 [Example 539] | 65.2

Test system: not given
Test: not given
Details: not given

melting point | SMILES
160 °C (dec.) | N#CNS(=O)(=O)c1ccccc1-c1ccc(CN(Cc2ccccc2)C(=O)c2ccccc2OC(F)(F)F)cc1 [Example 567, 4′-{[Benzyl-2-trifluoromethoxybenzoylamino]methyl}biphenyl-2-sulfonylcyanamide]
122 °C (dec.) | N#CNS(=O)(=O)c1ccccc1-c1ccc(CN(Cc2ccccc2)C(=O)Cc2ccccc2SC(F)(F)F)cc1 [Example 564]
173 °C (dec.) | Cc1ccccc1C(=O)N(Cc1ccccc1)Cc1ccc(-c2ccccc2S(=O)(=O)NC#N)cc1 [Example 565, 4′-{[Benzyl-2-methylbenzoylamino]methyl}biphenyl-2-sulfonylcyanamide]
165 °C (dec.) | N#CNS(=O)(=O)c1ccccc1-c1ccc(CN(Cc2ccccc2)C(=O)c2ccccc2C(F)(F)F)cc1 [Example 566, 4′-{[Benzyl-2-trifluoromethylbenzoylamino]methyl}biphenyl-2-sulfonylcyanamide]
125 °C (dec.) | N#CNS(=O)(=O)c1ccccc1-c1ccc(CN(Cc2ccccc2)C(=O)Cc2ccccc2OC(F)(F)F)cc1 [Example 563, 4′-{[Benzyl-2-(2-trifluoromethoxyphenyl)acetylamino]methyl}biphenyl-2-sulfonylcyanamide]
166 °C (dec.) | Cc1ccc(C(=O)N(Cc2ccccc2)Cc2ccc(-c3ccccc3S(=O)(=O)NC#N)cc2)s1 [Example 568, 4′-{[Benzyl-(5-methylthiophen-2-yl)carbonylamino]methyl}biphenyl-2-sulfonylcyanamide]
108 °C (dec.) | Cc1ccccc1CC(=O)N(Cc1ccccc1)Cc1ccc(-c2ccccc2S(=O)(=O)NC#N)cc1 [Example 561, 4′-{[Benzyl-2-(2-methylphenyl)acetylamino]methyl}biphenyl-2-sulfonylcyanamide]
90 °C (dec.) | N#CNS(=O)(=O)c1ccccc1-c1ccc(CN(Cc2ccccc2)C(=O)Cc2ccccc2C(F)(F)F)cc1 [Example 562, 4′-{[Benzyl-2-(2-trifluoromethylphenyl)acetylamino]methyl}biphenyl-2-sulfonylcyanamide]
